Structures can show the parent of a compound that is named as a salt.
Tests used:
Assay type in all cases: biochemical
Settings in all cases: HeLa S3 lysate, sfGFP/mCherry ratio, 2 hrs at 30° C.
[1] = tested on: ALK; test: In vitro transcription-translation (IVTT) reporter assay, ALK test sequence
Source text: (§1) All reporter constructs have been cloned into the pT7CFE1-CHis plasmid (ThermoFisher #88860) using Gibson assembly procedures (NEB #E2611L). The parental pT7CFE1-CHis plasmid contains an EMCV IRES at the 5′UTR for translation initiation, a multiple-cloning site (MCS) for gene insertion, an optional C-terminal His-epitope tag, and polyA sequence in the 3′UTR to regulate mRNA stability. All reporters are designed to be inserted at the MCS to include a red fluorescent protein (mCherry), P2A self-cleaving peptide which releases the preceding mCherry protein product, and a fusion open reading frame containing a 3×FLAG epitope, a peptide sequence of interest (TEST), and green fluorescent protein (sfGFP).
(§2) Construct Plasmid Preparation: All plasmids are isolated from MACH1 cells (ThermoFisher) grown overnight in ampicillin-containing luria broth, and purified using ZymoPure Express Plasmid Midiprep Kit (Zymo Research). Constructs are sequenced verified and diluted to a working concentration of 110 ng/μL.
(§3) HeLa S3 Lysate Preparation: HeLa S3 cell pellets are acquired from Ipracell/Ipratech (Belgium) and shipped as 4 mL frozen cell pellets on dry ice for storage at −80° C. until use. The procedure for lysate preparation is as follows. Prepare 1× Lysis Buffer, cold and stored on ice:
(§4) Each preparation takes 8 cell pellets (4 ml packed volume each, approximately 1.0×10^9 cells per pellet). Thaw cell pellets from −80° C. on ice for 90 mins. Lay pellets horizontally on top of the ice and rotate every 30 mins to ensure even thawing. Once thawed, add 4 mL of cold lysis buffer to each pellet, and using a serological pipet, gently pipet up and down to break up clumps. Incubate resuspended cells in ice for an additional 30 mins (plunged into ice). During 30 min incubation, rinse and RNase-zap (Ambion) glass dounces (use loose pestle “A”), gently dry and place on ice until needed. Prepare RNase-free Eppendorf tubes for spinning and for batch storage. Add batch labels to 1.5-1.7 mL RNase-free microcentrifuge tubes (labeling scheme below). Each batch will have an extra 1.5-1.7 mL RNase-free microcentrifuge tube for 40 μL of lysate, label the top of this tube (labeling scheme below). After 30 min incubation, transfer all 8 mL of cell pellet to dounce. Cell lysis is complete after douncing 100 times. Aliquot cell lysis into 1.5-1.7 mL temporary-microcentrifuge tubes. Place tubes in centrifuge with “fins” out, and spin at 1,200 xg for 5 mins. After the first spin use a 1 mL pipet to resuspend each tube and repeat spin. This acts as an additional lysis step, is more vigorous and increases lysate yield. During second spin get liquid N2 and a fresh conical tube on ice.
(§5) After spin is complete, transfer supernatant (lysate) from microcentrifuge tubes into the 50 mL conical tube and keep on ice. Repeat steps 10-14 for all other cell pellets until completed. Once all cell lysate has been transferred to the 50 mL conical tube pipet to mix so the solution is homogenous. Transfer 1 mL of lysate into batch-labeled microcentrifuge tubes and flash freeze in liquid nitrogen. Be sure to pipet up and down to mix throughout transfer step. Place all tubes in the […] for long-term storage.
(§6) In vitro transcription-translation assay setup: Each assay includes a master mix containing lysate and shared components, a 96-well plate containing compound titrations for testing, a 96-well DNA plate with reporter constructs to be tested, 96-well skirted PCR plates, and 96-well flat-bottom, black, fluorescent assay plates. […]

[2] = tested on: MYC; test: In vitro transcription-translation (IVTT) reporter assay, MYC test sequence
Source text: as §1, §2, §3, §4, §5, §6

[3] = tested on: KRAS G12D; test: In vitro transcription-translation (IVTT) reporter assay, KRAS G12D test sequence
Source text: as §1, §2, §3, §4, §5, §6

Row | SMILES | IC50 [1] | IC50 [2] | IC50 [3]
1 | COc1ccc(C[C@H]2NC[C@H](O)[C@H]2OC(=O)CCCCC(C)C)cc1 [V186779] | < 10 µM | < 10 µM | < 10 µM
2 | COc1ccc(C[C@H]2NC[C@H](O)[C@H]2OC(=O)Cc2nnc(N)s2)cc1 [V187048, (2R,3S,4S)-4-hydroxy-2-[(4-methoxyphenyl)methyl]pyrrolidin-3-yl 2-(5-amino-1,3,4-thiadiazol-2-yl)acetate] | < 10 µM | < 10 µM | < 10 µM
3 | CC(=O)O[C@@H]1[C@@H](O)CN[C@@H]1Cc1ccc(Br)cc1 [V187010, (2R,3S,4S)-2-[(4-bromophenyl)methyl]-4-hydroxypyrrolidin-3-yl acetate; trifluoroacetic acid] | < 10 µM | < 10 µM | < 10 µM
4 | CC(=O)O[C@@H]1[C@@H](O)CN[C@@H]1Cc1ccc(-c2cn(-c3ccccc3)nn2)cc1 [V187731] | < 10 µM | < 10 µM | < 10 µM
5 | COc1ccc(C[C@H]2NC[C@H](O)[C@H]2OC(=O)C2CN(CC3COC3)C2)cc1 [V186772, (2R,3S,4S)-4-hydroxy-2-[(4-methoxyphenyl)methyl]pyrrolidin-3-yl 1-(oxetan-3-ylmethyl)azetidine-3-carboxylate] | > 30 µM | > 30 µM | > 30 µM
6 | COc1ccc(C[C@H]2NC[C@H](O)[C@H]2OC(=O)c2ccc3onc(N)c3c2)cc1 [V000148, (2R,3S,4S)-4-hydroxy-2-[(4-methoxyphenyl)methyl]pyrrolidin-3-yl 3-amino-1,2-benzoxazole-5-carboxylate] | > 30 µM | > 30 µM | > 30 µM
7 | COc1ccc(C[C@H]2NC[C@H](O)[C@H]2OC(=O)CCC2CC2)cc1 [V187063, (2R,3S,4S)-4-hydroxy-2-[(4-methoxyphenyl)methyl]pyrrolidin-3-yl 3-cyclopropylpropanoate; trifluoroacetic acid] | < 10 µM | < 10 µM | < 10 µM
8 | COc1ccc(C[C@H]2NC[C@H](O)[C@H]2OC(=O)CCN2CCNCC2)cc1 [V186857, (2R,3S,4S)-4-hydroxy-2-[(4-methoxyphenyl)methyl]pyrrolidin-3-yl 3-(piperazin-1-yl)propanoate] | < 10 µM | > 30 µM | > 30 µM
9 | COc1ccc(C[C@H]2NC[C@H](O)[C@H]2OC(=O)CCN2CCN(C)CC2)cc1 [V186858, (2R,3S,4S)-4-hydroxy-2-[(4-methoxyphenyl)methyl]pyrrolidin-3-yl 3-(4-methylpiperazin-1-yl)propanoate; trifluoroacetic acid] | > 30 µM | > 30 µM | > 30 µM
10 | COc1ccc(C[C@H]2NC[C@H](O)[C@H]2OC(=O)COCc2nnc(C)s2)cc1 [V187720] | < 10 µM | < 10 µM | < 10 µM
11 | COc1ccc(C[C@H]2NC[C@H](O)[C@H]2OC(=O)CCC(F)(F)F)cc1 [V187163, (2R,3S,4S)-4-hydroxy-2-[(4-methoxyphenyl)methyl]pyrrolidin-3-yl 4,4,4-trifluorobutanoate; trifluoroacetic acid] | < 10 µM | < 10 µM | < 10 µM
12 | COc1ccc(C[C@H]2NC[C@H](O)[C@H]2OC(=O)Cc2noc(C)n2)cc1 [V187175, (2R,3S,4S)-4-hydroxy-2-[(4-methoxyphenyl)methyl]pyrrolidin-3-yl 2-(5-methyl-1,2,4-oxadiazol-3-yl)acetate; trifluoroacetic acid] | < 10 µM | < 10 µM | < 10 µM
13 | COc1ccc(C[C@H]2NC[C@H](O)[C@H]2OC(=O)CC[C@@H]2NC(=O)C3(CNC3)NC2=O)cc1 [V187324, (2R,3S,4S)-4-hydroxy-2-[(4-methoxyphenyl)methyl]pyrrolidin-3-yl 3-[(7S)-6,9-dioxo-2,5,8-triazaspiro[3.5]nonan-7-yl]propanoate] | > 30 µM | 20 to 30 µM | > 30 µM
14 | COc1ccc(C[C@H]2NC[C@H](O)[C@H]2OC(=O)C23CC(F)(C2)C3)cc1 [V187044, (2R,3S,4S)-4-hydroxy-2-[(4-methoxyphenyl)methyl]pyrrolidin-3-yl 3-fluorobicyclo[1.1.1]pentane-1-carboxylate; trifluoroacetic acid] | < 10 µM | 10 to 20 µM | > 30 µM
15 | COc1ccc(C[C@H]2NC[C@H](O)[C@H]2OC(=O)C(C)(C)O)cc1 [V186785, (2R,3S,4S)-4-hydroxy-2-[(4-methoxyphenyl)methyl]pyrrolidin-3-yl 2-hydroxy-2-methylpropanoate] | < 10 µM | > 30 µM | > 30 µM
16 | COc1ccc(C[C@H]2NC[C@H](O)[C@H]2OC(=O)CN)cc1 [V186760, (2R,3S,4S)-4-hydroxy-2-[(4-methoxyphenyl)methyl]pyrrolidin-3-yl 2-aminoacetate] | < 10 µM | < 10 µM | 20 to 30 µM
17 | COc1ccc(C[C@H]2NC[C@H](O)[C@H]2OC(=O)C2CSSC2)cc1 [V186868, (2R,3S,4S)-4-hydroxy-2-[(4-methoxyphenyl)methyl]pyrrolidin-3-yl 1,2-dithiolane-4-carboxylate; trifluoroacetic acid] | > 30 µM | – | > 30 µM

The remaining lines, values ahead:

Row | IC50 [1] | IC50 [2] | IC50 [3] | SMILES
18 | < 10 µM | < 10 µM | > 30 µM | COc1ccc(C[C@H]2NC[C@H](O)[C@H]2OC(=O)CC[C@@H]2NC(=O)CNC2=O)cc1 [V000144, (2R,3S,4S)-4-hydroxy-2-[(4-methoxyphenyl)methyl]pyrrolidine-3-yl 3-[(2S)-3,6-dioxopiperazin-2-yl]propanoate]
19 | < 10 µM | < 10 µM | < 10 µM | CC(=O)O[C@@H]1[C@@H](O)CN[C@@H]1Cc1ccc(C#N)cc1 [V187006, (2R,3S,4S)-2-[(4-cyanophenyl)methyl]-4-hydroxypyrrolidin-3-yl acetate; trifluoroacetic acid]
20 | > 30 µM | > 30 µM | > 30 µM | COc1ccc(C[C@H]2NC[C@H](O)[C@H]2OC(=O)c2ccc(S(=O)(=O)N(C)C)cc2)cc1 [V000198, (2R,3S,4S)-4-hydroxy-2-[(4-methoxyphenyl)methyl]pyrrolidin-3-yl 4-(dimethylsulfamoyl)benzoate]
21 | < 10 µM | < 10 µM | > 30 µM | COc1ccc(C[C@H]2NC[C@H](O)[C@H]2OC(=O)C2CCO2)cc1 (stereo partly drawn) [V186865, (2R,3S,4S)-4-hydroxy-2-(4-methoxybenzyl)pyrrolidin-3-yl oxetane-2-carboxylate FA salt]
22 | < 10 µM | < 10 µM | 10 to 20 µM | COc1ccc(C[C@H]2NC[C@H](O)[C@H]2OC(=O)CC(C)(C)O)cc1 [V186784, (2R,3S,4S)-4-hydroxy-2-[(4-methoxyphenyl)methyl]pyrrolidin-3-yl 3-hydroxy-3-methylbutanoate]
23 | < 10 µM | < 10 µM | < 10 µM | COc1ccc(C[C@H]2NC[C@H](O)[C@H]2OC(=O)[C@@H]2CCCO2)cc1 [V186825, (2R,3S,4S)-4-hydroxy-2-[(4-methoxyphenyl)methyl]pyrrolidin-3-yl (2S)-oxolane-2-carboxylate]
24 | > 30 µM | > 30 µM | > 30 µM | CCC1(C(=O)O[C@@H]2[C@@H](O)CN[C@@H]2Cc2ccc(OC)cc2)COC1 [V186781, (2R,3S,4S)-4-hydroxy-2-[(4-methoxyphenyl)methyl]pyrrolidin-3-yl 3-ethyloxetane-3-carboxylate]
25 | > 30 µM | > 30 µM | > 30 µM | COc1ccc(C[C@H]2NC[C@H](O)[C@H]2OC(=O)c2ccc(C(=O)C(F)(F)F)cc2)cc1 [V0092, (2R,3S,4S)-4-hydroxy-2-[(4-methoxyphenyl)methyl]pyrrolidin-3-yl 4-(2,2,2-trifluoroacetyl)benzoate]
26 | < 10 µM | – | 10 to 20 µM | COc1ccc(C[C@H]2NC[C@H](O)[C@H]2OC(=O)CN2CC3(C2)CC(F)(F)C3)cc1 [V187067, (2R,3S,4S)-4-hydroxy-2-[(4-methoxyphenyl)methyl]pyrrolidin-3-yl 2-{6,6-difluoro-2-azaspiro[3.3]heptan-2-yl}acetate]
